{
  "source": "patent US20240197700A1",
  "about": "“Methods and Compositions for Treating Lysosomal Storage Disorders” (Sanford Health, priority 2021, published 2024)",
  "test_system": "TFEB",
  "assay": "TFEB nuclear translocation time course in transfected N2A cells",
  "assay_type": "cell-based, mouse",
  "settings": "for TFEB nuclear translocation: N2A cells; for TFEB nuclear translocation (i.e., activation): overall statement, GFP-TFEB transfected N2A cells, acute treatment",
  "procedure": "FIG. 15(A-B). Treatment with LM11A-31 stimulates TFEB nuclear translocation as monitored via time course study. For (A), wild type neuro 2A […] neuroblastoma (N2A) cells were plated and transfected with a pEGFP-N1-TFEB plasmid for a 24-hour incubation. Cells were dyed and imaged on the CellInsight™ CX7 High-Content Screening Platform (CX7) then treated with media containing vehicle or LM11A-31 (100 nM, 1 μM). Cells were imaged every 30 minutes for three hours on the CX7 with incubation between imaging sessions, and results were quantified. The statistics were analyzed using Graphpad Prism™. One-way ANOVA. Mean S.E.M. Dunnett's multiple comparisons test compared to the vehicle treated group. *p<0.05, **p<0.01, ***p<0.001, ****p<0.0001. Quantification of TFEB nuclear translocation after treatment with vehicle or LM11A-31 (100 nM, 1 μM). […] (B) Since LM11A-31 increases the expression of lysosomal genes including the PPT1 and TPP1, and Cathepsin D enzymes, we asked whether LM11A-31 increases the overall activity levels of these enzymes in cellulo. Wild type (WT) and mutant cells were treated with vehicle or LM11A-31 (100 nM). Cells were plated on day 0 and dosed with drug-containing media on DIV3 and DIV5. Cells were lysed, and protein quantification and enzyme activity assay were performed on DIV7. Data was analyzed with GraphPad Prism™. Two-way ANOVA. Mean S.E.M. Tukey's multiple comparisons test. *p<0.05, **p<0.01, ***p<0.001. ****p<0.0001.\nTreatment with AF38469 stimulates TFEB nuclear translocation as monitored via time course study. For (A) and (B), wild type neuro 2A […] neuroblastoma (N2A) cells were plated and transfected with a pEGFP-N1-TFEB plasmid for a 24-hour incubation. Cells were treated with vehicle or AF38469 (40 nM, 400 nM) for three hours then immunocytochemistry was performed with anti-GFP (Abcam, ab13970) and 4′, -diamidino-2-phenylindole-dihydrochloride (DAPI). Cells were imaged on the Nikon AIR confocal microscope. For (C), wild type N2A cells were plated and transfected with a pEGFP-N1-TFEB plasmid for a 24-hour incubation. Cells were dyed and imaged on the CellInsight™ CX7 High-Content Screening Platform (CX7) then treated with media containing vehicle or AF38469 (40 nM, 400 nM). Cells were imaged every 30 minutes for three hours on the CX7 with incubation between imaging sessions, and results were quantified. The statistics were analyzed using Graphpad Prism™. One-way ANOVA. Mean±S.E.M. Dunnett's multiple comparisons test compared to the vehicle treated group. *p<0.05,**p<0.01, ***p<0.001, ****p<0.0001. […] TFEB is a transcription factor that stimulates transcription of genes that are necessary for lysosomal biogenesis and function. Thus, increased TFEB nuclear translocation is expected to stimulate lysosomal biogenesis and function.",
  "data": [
    {"smiles": "CC[C@H](C)[C@H](N)C(=O)NCCN1CCOCC1", "note": "[LM11A-31, N-[2-(morpholin-4-yl)ethyl]-L-isoleucinamide]", "values": [
      {"measurement": "TFEB nuclear translocation", "setting": "100 nM and 1 μM, 180 minutes of incubation", "result": "increasing trend continued"},
      {"measurement": "TFEB nuclear translocation", "setting": "100 nM, 90 minutes of incubation", "result": "significant increase"},
      {"measurement": "TFEB nuclear translocation (i.e., activation)", "result": "stimulated"}
    ]},
    {"smiles": "Cc1cccc(NC(=O)c2ccc(C(F)(F)F)cc2C(=O)O)n1", "note": "[AF38469, 2-((6-methylpyridin-2-yl)carbamoyl)-5-(trifluoromethyl)benzoic acid]", "values": [
      {"measurement": "TFEB nuclear translocation", "setting": "40 nM and 400 nM, 180 minutes of incubation, vs vehicle", "result": "significant increase"},
      {"measurement": "TFEB nuclear translocation", "setting": "40 nM, 90 minutes of incubation, vs vehicle", "result": "significant increase"},
      {"measurement": "TFEB nuclear translocation (i.e., activation)", "result": "stimulated"}
    ]}
  ]
}
